From patent publication CN108129355A, “一种盐酸益母草碱α晶型及其制备方法和应用” (Jingde Xinxing Biological Technology Co Ltd, priority 2018, dated 2018)

How the values were obtained:
Type in all cases: physicochemical
Solubility test (溶解度试验) = conditions: stated in words; values of table 2 missing in this copy
[1] = High humidity (RH92.5%) stability
[2] = High temperature (60℃) stability
[3] = Strong light (4500lx±500lx) stability

COc1cc(C(=O)OCCCCNC(=N)N)cc(OC)c1O [盐酸益母草碱α晶型, 盐酸益母草碱]
solubility (Solubility test (溶解度试验)): 较好的溶解性 | crystal form stability (X-ray powder diffraction result) [1]: X-射线粉末衍射结果均未发生变化,仍保持原本晶型 | crystal form stability (X-ray powder diffraction result) [2]: X-射线粉末衍射结果均未发生变化,仍保持原本晶型 | crystal form stability (X-ray powder diffraction result) [3]: X-射线粉末衍射结果均未发生变化,仍保持原本晶型
